Square brackets hold non-standard residues; d marks the D form. Ends that are not written are not given here. Cha = N[C@@H](CC1CCCCC1)C(=O)O
Tests used:
[1] = tested on: targets labeled with I9V peptide; assay: Chromium release assay of immune splenocytes from immunized HLA A2/Kb mice, I9V-loaded targets; assay type: in vivo; conditions: two doses of 50 nmoles; E:T ratio of 100
Method: Fourteen days later, the spleens were retrieved. The CTL responses of the immune splenocytes were tested after one round of in vitro stimulation (IVS). […] […]. […] This experiment was repeated four times with similar results each time. Using a two-tailed T test, there was a significant difference of P<0.03 at all E:T ratios. […].
[…]; SEQ ID NO:10). See Hartmann et al., J. Immunol. 164:1617-1624, 2000. The chemical yield and purity of this conjugate were similar to the others synthesized above using CpG 1826 (murine). […] […] The CpG-ODN used in Conjugate 10 also is known under the trade names ProMune™ or Vaxmune™ (Coley Pharmaceutical Group).

[2] = tested on: recombinant vaccinia virus expressing the HIV-pol gene; parameters: species or system mice; conditions: mouse, in vivo
I9V-loaded JA2 cells = assay: Chromium release assay, cells from immunized HHD II mice, I9V-loaded JA2 targets; assay type: in vivo; conditions: three mice each
From the text: HHD II mice were immunized with 1 nmole of either Conjugate 7 or Conjugate 3 (which is the same as Conjugate 7 but also contains PADRE). […].
To address whether the defect in Conjugate 7 immunogenicity was the missing PADRE TH epitope, immunizations with Conjugate 7 plus PADRE TH were compared to immunizations with Conjugate 7 alone. […]. […] Further, the majority of the stimulating activity of the PADRE epitope is caused by the sequence itself, rather than the artificial junction caused by chimerizing the CTL and TH epitopes, since Conjugate 3 and Conjugate 7 plus PADRE in trans have similar immunogenicity. Similar fusion peptides, including a fusion peptide composed of PADRE and an HPV-specific CTL epitope, have been administered to volunteers and women with cervical neoplasia without causing observable autoimmunity

[3] = fmoc spps; Wang resin (substitution about 0.8 mmole/g), Novabiochem; HBTU/DIEA; conditions: conjugation step, scale approximately 0.22 mmole (0.4 g Fmoc-AA-Wang resin); for final hplc purity: Method B, 260 nm

Row | Substance | target cell lysis [1] | protection against viral challenge [2] | immunogenicity (chromium release) (I9V-loaded JA2 cells) | final hplc purity [3] | step mass [3]
1 | AKXVAAWTLKAAAILKEPVHGV, X = cyclohexylalanine (AK[Cha]VAAWTLKAAAILKEPVHGV) [PADRE:I9V fusion peptide] | 8% | equivalently unprotected | little immunogenicity |  | 
2 | KSS:PADRE:S9L + Oligo 3 |  |  |  | about 70-80% pure | About 6.0 mg
3 | PADRE:I9V:N:S9L + Oligo 3 |  |  |  | 70-80% pure | About 8.0 mg

Source: patent US10596254B2 (priority 2003, dated 2020)
